Experimental data as given in BindingDB's records for doi:10.1016/j.bmcl.2009.10.040 (Methylgene, 2009).

Key:
[1] = Inhibition of c-Met in human A549 cells by wound healing assay
[2] = Inhibition of c-Met in human DU145 cells assessed as cell scattering

IC50 [1]: 80 nM
IC50 [2]: 80 nM
Compound: COc1cc2nccc(Oc3ccc(NC(=O)N4CCN(c5ccccc5)C4=O)cc3F)c2cc1OC
